Assays:
total ATXN3 protein = test: ATXN3 total protein assay (Mesoscale Discovery); type: cell-based; conditions: Human neuroblastoma SK-N-MC cells, 48 hours incubation, MSD assay
Protocol: Human neuroblastoma SK-N-MC cells were seeded at 10,000 cells/well in 384 well plates one day prior to compound treatment. The concentrations of compounds were tested at appropriate doses ranging from 30 µM to 0.6 nM. After incubation for 48 hours, the cells were lysed with 25.L of lysis buffer containing protease inhibitors, and total ATXN3 protein levels were assessed by Mesoscale Discovery (MSD) assay developed with one pair of and-ATXN3 antibodies. The capture and detect antibodies were raised in mouse and rabbit respectively. Anti-rabbit MSD-ST antibody was used for secondary antibody.
ATXN3 recombinant protein was used for standards. The readouts were captured with 35.L of MSD read buffer and multi-array 384-well high binding plates.

[1] = test system: ATXN3 transcripts containing exon 4; test: ATXN3 quantitative splicing assay (qPCR, E4E5 transcripts containing exon 4); type: cell-based; conditions: Human neuroblastoma SK-N-MC cells, 24 h treatment, qPCR primers/probe E4E5
Protocol: Human neuroblastoma SK-N-MC cells were plated in 384-well plates at 20,000 cells/well. Twenty-four hours after plating, cells were treated with compounds for 24 h at appropriate concentrations ranging from 30 μM to 0.6 nM (0.3% DMSO). Treated cells were lysed in 15 μL of lysis buffer, and cDNA was synthesized using the Fast Advanced Cells-to-Ct kit. Two μL of each cDNA was used in qPCR reactions to confirm the exon 4 skipped transcripts of ATXN3. A second set of primers/probe E4E5 was used to detect the transcripts containing exon 4. The third set of primers/probe E8E9 was used to detect total gene level of ATXN3. The qPCR reactions were prepared in 384-well plates in 10.L volume, using TaqMan™ Fast Advanced Master Mix with primers and probes shown in the table below. Reactions were run in a Quant Studio 6 qPCR instrument with default settings.
The primers and probes are listed below in Table 5.

SMILES: Cc1c(C[C@@H](N)C2CC(F)(F)C2)sc2c(NCc3cccs3)snc12 [Compound 84, 7-[(R)-2-amino-2-(3,3-difluorocyclobutyl)eth-yl]-8-methyl-4-thenylamino-3,6-dithia-2-azabicyclo[3.3.0]octa-1,4,7-triene]
- IC50 (total ATXN3 protein): 5 to 10 µM
- IC50 [1]: 0.501 to 5 µM

SMILES: CSc1c(C[C@H](C)N)sc2c(NCc3ccco3)snc12 [Compound 85, 7-[(S)-2-aminopropyl]-4-(furfurylamino)-8-(methylthio)-3,6-dithia-2-azabicyclo[3.3.0]octa-1,4,7-triene]
- IC50 (total ATXN3 protein): 10 to 40 µM
- IC50 [1]: 5 to 10 µM

SMILES: C[C@H](N)Cc1sc2c(NCc3cccs3)snc2c1CO [Compound 87, {7-[(S)-2-aminopropyl]-4-thenylamino-3,6-dithia-2-azabicyclo[3.3.0]octa-1,4,7-trien-8-yl}methanol]
- IC50 (total ATXN3 protein): 10 to 40 µM
- IC50 [1]: 10 to 40 µM

SMILES: CC(=O)Nc1csc2c(NCc3cccs3)snc12 [Compound 88, N-(4-thenylamino-3,6-dithia-2-azabicyclo[3.3.0]octa-1,4,7-trien-8-yl)acetamide]
- IC50 (total ATXN3 protein): 10 to 40 µM
- IC50 [1]: 10 to 40 µM

SMILES: N[C@H](Cc1sc2c(NCc3cccs3)snc2c1Cl)C(CO)CO [Compound 89, 2-{(R)-1-amino-2-(8-chloro-4-thenylamino-3,6-dithia-2-azabicyclo[3.3.0]octa-1,4,7-trien-7-yl)ethyl}-1,3-propanediol]
- IC50 (total ATXN3 protein): 0.501 to 5 µM
- IC50 [1]: 5 to 10 µM

SMILES: CSc1csc2c(NCc3ccco3)snc12 [Compound 90, (furfuryl){8-(methylthio)-3,6-dithia-2-azabicyclo[3.3.0]octa-1,4,7-trien-4-yl}amine]
- IC50 (total ATXN3 protein): 10 to 40 µM
- IC50 [1]: 10 to 40 µM

SMILES: C[C@H](F)[C@H](N)Cc1sc2c(NCc3sccc3F)snc2c1Br [Compound 93, 7-[(2R,3S)-2-amino-3-fluorobutyl]-8-bromo-4-{[(3-fluoro-2-thienyl)methyl]amino}-3,6-dithia-2-azabicyclo[3.3.0]octa-1,4,7-triene]
- IC50 (total ATXN3 protein): 0.501 to 5 µM
- IC50 [1]: 0.501 to 5 µM

SMILES: C[C@@H](F)[C@H](N)Cc1sc2c(NCc3sccc3F)snc2c1Cl [Compound 94, 7-[(2R,3R)-2-amino-3-fluorobutyl]-8-chloro-4-{[(3-fluoro-2-thienyl)methyl]amino}-3,6-dithia-2-azabicyclo[3.3.0]octa-1,4,7-triene]
- IC50 (total ATXN3 protein): 5 to 10 µM
- IC50 [1]: 5 to 10 µM

SMILES: C[C@H](F)[C@H](N)Cc1sc2c(NCc3sccc3F)snc2c1Cl [Compound 95, 7-[(2R,3S)-2-amino-3-fluorobutyl]-8-chloro-4-{[(3-fluoro-2-thienyl)methyl]amino}-3,6-dithia-2-azabicyclo[3.3.0]octa-1,4,7-triene]
- IC50 (total ATXN3 protein): 0.501 to 5 µM
- IC50 [1]: 0.501 to 5 µM

SMILES: C[C@H](F)[C@H](N)Cc1sc2c(NCc3ccc(F)s3)snc2c1Cl [Compound 96, 7-[(2R,3S)-2-amino-3-fluorobutyl]-8-chloro-4-{[(5-fluoro-2-thienyl)methyl]amino}-3,6-dithia-2-azabicyclo[3.3.0]octa-1,4,7-triene]
- IC50 (total ATXN3 protein): 5 to 10 µM
- IC50 [1]: 0.501 to 5 µM

SMILES: C=Cc1c(C[C@@H](N)[C@H](C)F)sc2c(NCc3cccs3)snc12 [Compound 97, 7-[(2R,3S)-2-amino-3-fluorobutyl]-4-thenylamino-8-vinyl-3,6-dithia-2-azabicyclo[3.3.0]octa-1,4,7-triene]
- IC50 (total ATXN3 protein): 0.501 to 5 µM
- IC50 [1]: 0.501 to 5 µM

SMILES: C[C@H](N)C(F)(F)c1sc2c(NCc3cccs3)snc2c1Cl [Compound 98, 7-[(S)-2-amino-1,1-difluoropropyl]-8-chloro-4-thenylamino-3,6-dithia-2-azabicyclo[3.3.0]octa-1,4,7-triene]
- IC50 (total ATXN3 protein): 0.501 to 5 µM
- IC50 [1]: 0.501 to 5 µM

SMILES: C[C@H](N)C(F)(F)c1sc2c(NCc3cccs3)snc2c1Br [Compound 99, 5-[(2S)-2-amino-1,1-difluoropropyl]-6-bromo-N-(thiophen-2-ylmethyl)thieno[3,2-c][1,2]thiazol-3-amine]
- IC50 (total ATXN3 protein): 0.501 to 5 µM
- IC50 [1]: 0.501 to 5 µM

SMILES: N[C@@H](COC1CC1)Cc1sc2c(NCc3cccs3)snc2c1Br [Compound 100, 7-[(R)-2-amino-3-cyclopropoxypropyl]-8-bromo-4-thenylamino-3,6-dithia-2-azabicyclo[3.3.0]octa-1,4,7-triene]
- IC50 (total ATXN3 protein): 0.501 to 5 µM
- IC50 [1]: 0.501 to 5 µM

SMILES: N[C@H](Cc1sc2c(NCc3ccco3)snc2c1Cl)C(F)F [Compound 101, 7-[(R)-2-amino-3,3-difluoropropyl]-8-chloro-4-(furfurylamino)-3,6-dithia-2-azabicyclo[3.3.0]octa-1,4,7-triene]
- IC50 (total ATXN3 protein): 0.501 to 5 µM
- IC50 [1]: 0.501 to 5 µM

SMILES: C[C@H](N)C(O)c1sc2c(NCc3cccs3)snc2c1Cl (stereo partly drawn) [Compound 102, (2S)-2-amino-1-(8-chloro-4-thenylamino-3,6-dithia-2-azabicyclo[3.3.0]octa-1,4,7-trien-7-yl)-1-propanol]
- IC50 (total ATXN3 protein): 10 to 40 µM
- IC50 [1]: 10 to 40 µM

SMILES: C[C@H](N)C(O)c1sc2c(NCc3cccs3)snc2c1Br (stereo partly drawn) [Compound 103, (2S)-2-amino-1-{6-bromo-3-[(thiophen-2-ylmethyl)amino]thieno[3,2-c][1,2]thiazol-5-yl}propan-1-ol]
- IC50 (total ATXN3 protein): 10 to 40 µM
- IC50 [1]: 10 to 40 µM

SMILES: N[C@@H](CF)Cc1sc2c(NCc3nccs3)snc2c1Br [Compound 104, 7-[(R)-2-amino-3-fluoropropyl]-8-bromo-4-{[(1,3-thiazol-2-yl)methyl]amino}-3,6-dithia-2-azabicyclo[3.3.0]octa-1,4,7-triene]
- IC50 (total ATXN3 protein): 0.501 to 5 µM
- IC50 [1]: 0.501 to 5 µM

SMILES: C[C@H](F)[C@H](N)Cc1sc2c(NCc3nccs3)snc2c1Br [Compound 105, 7-[(2R,3S)-2-amino-3-fluorobutyl]-8-bromo-4-{[(1,3-thiazol-2-yl)methyl]amino}-3,6-dithia-2-azabicyclo[3.3.0]octa-1,4,7-triene]
- IC50 (total ATXN3 protein): 0.101 to 0.5 µM
- IC50 [1]: 0.101 to 0.5 µM

SMILES: C[C@@H](F)[C@H](N)Cc1sc2c(NCc3nccs3)snc2c1Br [Compound 106, 7-[(2R,3R)-2-amino-3-fluorobutyl]-8-bromo-4-{[(1,3-thiazol-2-yl)methyl]amino}-3,6-dithia-2-azabicyclo[3.3.0]octa-1,4,7-triene]
- IC50 (total ATXN3 protein): 0.501 to 5 µM
- IC50 [1]: 0.501 to 5 µM

SMILES: C[C@H](N)C(F)(F)c1sc2c(NCc3ccco3)snc2c1Cl [Compound 110, 7-[(S)-2-amino-1,1-difluoropropyl]-8-chloro-4-(furfurylamino)-3,6-dithia-2-azabicyclo[3.3.0]octa-1,4,7-triene]
- IC50 (total ATXN3 protein): 0.501 to 5 µM
- IC50 [1]: 0.501 to 5 µM

SMILES: N[C@H](Cc1sc2c(NCc3ccco3)snc2c1Br)C(F)F [Compound 111, 7-[(R)-2-amino-3,3-difluoropropyl]-8-bromo-4-(furfurylamino)-3,6-dithia-2-azabicyclo[3.3.0]octa-1,4,7-triene]
- IC50 (total ATXN3 protein): 0.501 to 5 µM
- IC50 [1]: 0.501 to 5 µM

SMILES: Brc1csc2c(NCc3cccs3)snc12 [Compound 113, (thenyl)(8-bromo-3,6-dithia-2-azabicyclo[3.3.0]octa-1,4,7-trien-4-yl)amine]
- IC50 (total ATXN3 protein): 10 to 40 µM
- IC50 [1]: 10 to 40 µM

SMILES: COC(c1sc2c(NCc3cccs3)snc2c1Br)[C@H](C)N (stereo partly drawn) [Compound 114, 5-[(2S)-2-amino-1-methoxypropyl]-6-bromo-N-(thiophen-2-ylmethyl)thieno[3,2-c][1,2]thiazol-3-amine]
- IC50 (total ATXN3 protein): 10 to 40 µM
- IC50 [1]: 10 to 40 µM

SMILES: C[C@H](N)Cc1sc2c(NCc3cccs3)snc2c1-c1ccccc1 [Compound 128, 7-[(S)-2-aminopropyl]-8-phenyl-4-thenylamino-3,6-dithia-2-azabicyclo[3.3.0]octa-1,4,7-triene]
- IC50 (total ATXN3 protein): 10 to 40 µM
- IC50 [1]: 10 to 40 µM
